In US11787780B2 (CORCEPT THERAPEUTICS INCORPORATED, priority 2020, dated 2023):

Legend:
[1] = molecular target: glucocorticoid receptor (GR) recombinant ligand binding domain (LBD) (Homo sapiens (Human), UniProt P04150); experiment: GR binding fluorescence polarisation (FP) assay; details: displacement of fluorescently tagged ligand
Experimental: Binding of test compounds to the glucocorticoid receptor (GR) is determined using a fluorescence polarisation (FP) assay utilising a recombinant ligand binding domain (LBD) of GR. The test compounds are assessed by their ability to displace a fluorescently tagged ligand and detection of the resulting decrease in fluorescence polarisation.

[2] = system: induction of TAT by dexamethasone in HepG2 cells; experiment: Hep G2 TAT assay (inhibition of dexamethasone-induced TAT); format: cell-based, human; details: challenge of 100 nM dexamethasone, IC50 converted to Ki by Cheng and Prusoff equation

Sequence of glucocorticoid receptor (GR) recombinant ligand binding domain (LBD) (P04150 524-758): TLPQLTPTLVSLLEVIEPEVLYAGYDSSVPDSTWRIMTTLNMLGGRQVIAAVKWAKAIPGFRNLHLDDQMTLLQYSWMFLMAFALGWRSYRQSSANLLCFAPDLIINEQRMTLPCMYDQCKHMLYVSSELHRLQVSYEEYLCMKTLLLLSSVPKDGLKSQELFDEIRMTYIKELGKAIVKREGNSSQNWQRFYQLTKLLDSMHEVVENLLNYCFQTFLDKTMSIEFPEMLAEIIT

With `COc1cc2c(cnn2-c2ccc(F)cc2)cc1C1(Cc2ccccc2)CCN(C(=O)c2nccs2)C1` (stereo not shown) [Example 233, (3-benzyl-3-(1-(4-fluorophenyl)-6-methoxy-1H-indazol-5-yl)pyrrolidin-1-yl)(thiazol-2-yl)methanone] the IC50 [1] was 70 nM and the Ki [2] was 52 nM.

Work on `Cc1cc2c(cnn2-c2cnn(C)c2)cc1C1(Cc2ccccc2)CCN(S(=O)(=O)c2ccc(F)c(F)c2)C1` (stereo not shown) [Example 272, 5-(3-benzyl-1-((3,4-difluorophenyl)sulfonyl)pyrrolidin-3-yl)-6-methyl-1-(1-methyl-1H-pyrazol-4-yl)-1H-indazole] yielded an IC50 [1] of 22 nM and a Ki [2] of 29 nM.

Work on `Cc1cc2c(cnn2-c2ccc(F)cc2)cc1C1(Cc2ccccc2)CCN(S(C)(=O)=O)C1` (stereo not shown) [Example 16, 5-(3-benzyl-1-(methylsulfonyl)pyrrolidin-3-yl)-1-(4-fluorophenyl)-6-methyl-1H-indazole] yielded an IC50 [1] of 8 nM and a Ki [2] of 32 nM.

In the case of `Cc1cc2c(cnn2-c2ccc(F)cc2)cc1N1CCN(C(=O)c2ccc(F)c(F)c2)C2(CC2)C1` [Example 101], the IC50 [1] is reported as 118 nM and the Ki [2] is reported as 823 nM.

Compound `Cc1cc2c(cnn2-c2ccc(F)cc2)cc1C1(Cc2ccc(C(F)(F)F)cc2)CCN(S(C)(=O)=O)C1` (stereo not shown) [Example 177] has an IC50 [1] of 212 nM and a Ki [2] of 28 nM.

For `Cc1cc2c(cnn2-c2ccc(=O)n(C)c2)cc1C1(Cc2ccccc2)CCN(C(=O)C2CC2C)C1` (stereo not shown) [Example 331, 5-(5-(3-benzyl-1-(2-methylcyclopropane-1-carbonyl)pyrrolidin-3-yl)-6-methyl-1H-indazol-1-yl)-1-methylpyridin-2(1H)-one], the IC50 [1] was 15 nM and the Ki [2] was 100 nM.

`Cc1cc2c(cnn2-c2ccc(F)cc2)cc1C1CCN(C(=O)NC(C)C)CC1` [Example 32, 4-(1-(4-fluorophenyl)-6-methyl-1H-indazol-5-yl)-N-isopropylpiperidine-1-carboxamide] was tested, and the IC50 [1] was 70 nM and the Ki [2] was 400 nM.

In the case of `CCCn1cc(S(=O)(=O)N2CCC(Cc3ccccc3)(c3cc4cnn(-c5ccc(=O)n(C)c5)c4cc3C)C2)cn1` (stereo not shown) [Example 318, 5-(5-(3-benzyl-1-((1-propyl-1H-pyrazol-4-yl)sulfonyl)pyrrolidin-3-yl)-6-methyl-1H-indazol-1-yl)-1-methylpyridin-2(1H)-one], the IC50 [1] is reported as 5.1 nM and the Ki [2] is reported as 48 nM.

`COc1cc2c(cnn2-c2ccc(F)cc2)cc1C1(Cc2ccccc2)CCN(S(=O)(=O)C2CC2)C1` (stereo not shown) [Example 166] gave an IC50 [1] of 14 nM and a Ki [2] of 26 nM.

`COc1cc2c(cnn2-c2ccc(F)cc2)cc1C1(Cc2ccccc2)CCN(S(C)(=O)=O)C1` (stereo not shown) [Example 160] was tested, and the IC50 [1] was 5 nM and the Ki [2] was 24 nM.

`Cc1cc2c(cnn2-c2ccc(F)cc2)cc1N1CCN(S(C)(=O)=O)C2(CC2)C1` [Example 58] was tested, and the IC50 [1] was 32 nM and the Ki [2] was 321 nM.

With `Cc1cc2c(cnn2-c2ccc(=O)n(C)c2)cc1C1(Cc2ccccc2)CCN(S(=O)(=O)c2cccc(C#N)c2)C1` (stereo not shown) [Example 295, 3-((3-benzyl-3-(6-methyl-1-(1-methyl-6-oxo-1,6-dihydropyridin-3-yl)-1H-indazol-5-yl)pyrrolidin-1-yl)sulfonyl)benzonitrile] the IC50 [1] was 6.3 nM and the Ki [2] was 62 nM.

`Cc1cc2c(cnn2-c2cc(F)c(=O)n(C)c2)cc1C1(Cc2ccccc2)CCN(S(=O)(=O)c2cnn(C)n2)C1` (stereo not shown) [Example 246, 5-(5-(3-benzyl-1-((2-methyl-2H-1,2,3-triazol-4-yl)sulfonyl)pyrrolidin-3-yl)-6-methyl-1H-indazol-1-yl)-3-fluoro-1-methylpyridin-2(1H)-one] was tested, and the IC50 [1] was 6.3 nM and the Ki [2] was 49 nM.

Work on `Cc1cc2c(cnn2-c2ccc(F)c(C#N)c2)cc1C1(Cc2ccccc2)CCN(S(=O)(=O)c2cnn(C)n2)C1` (stereo not shown) [Example 239, 5-(5-(3-benzyl-1-((2-methyl-2H-1,2,3-triazol-4-yl)sulfonyl)pyrrolidin-3-yl)-6-methyl-1H-indazol-1-yl)-2-fluorobenzonitrile] yielded an IC50 [1] of 28 nM and a Ki [2] of 36 nM.

`CCCn1cc(S(=O)(=O)N2CCC(Cc3ccccc3)(c3cc4cnn(-c5ccc(F)cc5)c4cc3C)C2)cn1` (stereo not shown) [Example 147] was tested, and the IC50 [1] was 42 nM and the Ki [2] was 12 nM.

`Cn1cc(S(=O)(=O)N2CCC(Cc3ccccc3)(c3cc4cnn(-c5ccc(F)cc5)c4cc3Cl)C2)cn1` (stereo not shown) [Example 223, 5-(3-benzyl-1-((1-methyl-1H-pyrazol-4-yl)sulfonyl)pyrrolidin-3-yl)-6-chloro-1-(4-fluorophenyl)-1H-indazole] showed an IC50 [1] of 14 nM and a Ki [2] of 38 nM.

In the case of `Cc1cc2c(cnn2-c2ccc(F)cc2)cc1N1CCC[C@H](N(C)S(C)(=O)=O)C1` [Example 123], the IC50 [1] is reported as 73 nM and the Ki [2] is reported as 284 nM.

With `Cc1cc2c(cnn2-c2ccc(=O)n(C)c2)cc1C1(Cc2ccccc2)CCN(S(=O)(=O)c2ccc(Cl)cc2)C1` (stereo not shown) [Example 305, 5-(5-(3-benzyl-1-((4-chlorophenyl)sulfonyl)pyrrolidin-3-yl)-6-methyl-1H-indazol-1-yl)-1-methylpyridin-2(1H)-one] the IC50 [1] was 3 nM and the Ki [2] was 32 nM.

In the case of `Cc1cc2c(cnn2-c2cn(C)nc2C)cc1C1(Cc2ccccc2)CCN(S(=O)(=O)c2cnn(C)n2)C1` (stereo not shown) [Example 257, 5-(3-benzyl-1-((2-methyl-2H-1,2,3-triazol-4-yl)sulfonyl)pyrrolidin-3-yl)-1-(1,3-dimethyl-1H-pyrazol-4-yl)-6-methyl-1H-indazole], the IC50 [1] is reported as 52 nM and the Ki [2] is reported as 220 nM.

Compound `COc1ccc(S(=O)(=O)N2CCC(Cc3ccccc3)(c3cc4cnn(-c5ccc(=O)n(C)c5)c4cc3C)C2)cn1` (stereo not shown) [Example 306, 5-(5-(3-benzyl-1-((6-methoxypyridin-3-yl)sulfonyl)pyrrolidin-3-yl)-6-methyl-1H-indazol-1-yl)-1-methylpyridin-2(1H)-one] has an IC50 [1] of 11 nM and a Ki [2] of 56 nM.

Compound `Cc1cc2c(cnn2-c2ccc(=O)[nH]c2)cc1C1(Cc2ccccc2)CCN(S(=O)(=O)c2cnn(C)n2)C1` (stereo not shown) [Example 267, 5-(5-(3-benzyl-1-((2-methyl-2H-1,2,3-triazol-4-yl)sulfonyl)pyrrolidin-3-yl)-6-methyl-1H-indazol-1-yl)pyridin-2(1H)-one] has an IC50 [1] of 5.6 nM and a Ki [2] of 93 nM.

Compound `Cc1cc2c(cnn2-c2ccc(=O)n(C)c2)cc1C1(Cc2ccccc2)CCN(S(=O)(=O)c2cn(C)c(C)n2)C1` (stereo not shown) [Example 288] has an IC50 [1] of 33 nM and a Ki [2] of 110 nM.

Compound `Cc1cc2c(cnn2-c2ccc(=O)n(C)c2)cc1C1(Cc2ccccc2)CCN(S(=O)(=O)c2cncc(Cl)c2)C1` (stereo not shown) [Example 312, 5-(5-(3-benzyl-1-((5-chloropyridin-3-yl)sulfonyl)pyrrolidin-3-yl)-6-methyl-1H-indazol-1-yl)-1-methylpyridin-2(1H)-one] has an IC50 [1] of 12 nM and a Ki [2] of 41 nM.

`Cc1cc2c(cnn2-c2ccc(=O)n(C)c2)cc1C1(Cc2ccccc2)CCN(S(=O)(=O)c2ccc(F)cc2F)C1` (stereo not shown) [Example 314, 5-(5-(3-benzyl-1-((2,4-difluorophenyl)sulfonyl)pyrrolidin-3-yl)-6-methyl-1H-indazol-1-yl)-1-methylpyridin-2(1H)-one] showed an IC50 [1] of 11 nM and a Ki [2] of 56 nM.

`CCCn1cc(S(=O)(=O)N2CCC3(CCN(c4cc5cnn(-c6ccc(F)cc6)c5cc4C)CC3)C2)cn1` [Example 94] showed an IC50 [1] of 52 nM and a Ki [2] of 95 nM.

In the case of `Cc1cc2c(cnn2-c2cc(Cl)c(=O)n(C)c2)cc1C1(Cc2ccccc2)CCN(S(=O)(=O)c2cnn(C)n2)C1` (stereo not shown) [Example 248, 5-(5-(3-benzyl-1-((2-methyl-2H-1,2,3-triazol-4-yl)sulfonyl)pyrrolidin-3-yl)-6-methyl-1H-indazol-1-yl)-3-chloro-1-methylpyridin-2(1H)-one], the IC50 [1] is reported as 55 nM and the Ki [2] is reported as 260 nM.

Compound `Cc1cc2c(cnn2-c2ccc(F)cc2)cc1C1(Cc2cccnc2)CCN(S(C)(=O)=O)C1` (stereo not shown) [Example 148] has an IC50 [1] of 24 nM and a Ki [2] of 331 nM.

For `CCn1cc(-n2ncc3cc(C4(Cc5ccccc5)CCN(S(=O)(=O)c5cnn(C)n5)C4)c(C)cc32)cn1` (stereo not shown) [Example 258, 5-(3-benzyl-1-((2-methyl-2H-1,2,3-triazol-4-yl)sulfonyl)pyrrolidin-3-yl)-1-(1-ethyl-1H-pyrazol-4-yl)-6-methyl-1H-indazole], the IC50 [1] was 31 nM and the Ki [2] was 76 nM.

`Cc1cc2c(cnn2-c2ccc(=O)n(C)c2)cc1C1(Cc2ccccc2)CCN(S(=O)(=O)c2ccccc2F)C1` (stereo not shown) [Example 301, 5-(5-(3-benzyl-1-((2-fluorophenyl)sulfonyl)pyrrolidin-3-yl)-6-methyl-1H-indazol-1-yl)-1-methylpyridin-2(1H)-one] gave an IC50 [1] of 4.8 nM and a Ki [2] of 25 nM.

With `Cc1ccc(S(=O)(=O)N2CCC(Cc3ccccc3)(c3cc4cnn(-c5ccc(=O)n(C)c5)c4cc3C)C2)cc1` (stereo not shown) [Example 307, 5-(5-(3-benzyl-1-tosylpyrrolidin-3-yl)-6-methyl-1H-indazol-1-yl)-1-methylpyridin-2(1H)-one] the IC50 [1] was 8.8 nM and the Ki [2] was 89 nM.

`CCCn1cc(S(=O)(=O)N2CC=C(c3cc4cnn(-c5ccc(F)cc5)c4cc3OC(F)F)CC2)cn1` [Example 144] was tested, and the IC50 [1] was 265 nM and the Ki [2] was 180 nM.

`CCCn1cc(S(=O)(=O)N2CCC(Cc3ccccc3)(c3cc4cnn(-c5ccc(F)cc5)c4cc3C)CC2)cn1` [Example 25, 5-(4-benzyl-1-((1-propyl-1H-pyrazol-4-yl)sulfonyl)piperidin-4-yl)-1-(4-fluorophenyl)-6-methyl-1H-indazole] gave an IC50 [1] of 67 nM and a Ki [2] of 29 nM.

With `Cc1cc2c(cnn2-c2cnn(C)c2C)cc1C1(Cc2ccccc2)CCN(S(=O)(=O)c2cnn(C)n2)C1` (stereo not shown) [Example 253, 5-(3-benzyl-1-((2-methyl-2H-1,2,3-triazol-4-yl)sulfonyl)pyrrolidin-3-yl)-1-(1,5-dimethyl-1H-pyrazol-4-yl)-6-methyl-1H-indazole] the IC50 [1] was 24 nM and the Ki [2] was 240 nM.

`Cc1cc2c(cnn2-c2ccc(=O)n(C)c2)cc1C1(Cc2ccccc2)CCN(S(=O)(=O)c2cnccc2Cl)C1` (stereo not shown) [Example 311, 5-(5-(3-benzyl-1-((4-chloropyridin-3-yl)sulfonyl)pyrrolidin-3-yl)-6-methyl-1H-indazol-1-yl)-1-methylpyridin-2(1H)-one] gave an IC50 [1] of 3 nM and a Ki [2] of 29 nM.

With `CCC1(c2cc3cnn(-c4ccc(F)cc4)c3cc2C)CCN(S(C)(=O)=O)C1` (stereo not shown) [Example 167] the IC50 [1] was 8 nM and the Ki [2] was 256 nM.
